# From ChEMBL document CHEMBL5360532, “Current scenario of quinolone hybrids with potential antibacterial activity against ESKAPE pathogens” (Eur J Med Chem, 2023)
# Key:
# Type in all cases: functional
# Escherichia coli [1] = assay: Potency index, ratio of ciprofloxacin MIC to test compound MIC for antimicrobial activity against Escherichia coli assessed as bacterial growth inhibition by agar cup diffusion assay
# SiHa = assay: Growth inhibition of human SiHa cells measured after 48 hrs by SRB assay
# MDA-MB-231 = assay: Growth inhibition of human MDA-MB-231 cells measured after 48 hrs by SRB assay
# Pseudomonas aeruginosa [2] = assay: Antibacterial activity against Pseudomonas aeruginosa assessed as bacterial growth inhibition by broth microdilution assay
# Escherichia coli [3] = assay: Antibacterial activity against Escherichia coli ATCC35218 assessed as bacterial growth inhibition measured after 18 to 24 hrs inhibition by broth microdilution assay; conditions: time 18-24 hrs
# Escherichia coli [4] = assay: Antibacterial activity against Escherichia coli assessed as bacterial growth inhibition measured after 18 to 24 hrs by two fold serial dilution assay; conditions: time 18-24 hrs
# Staphylococcus aureus [5] = assay: Antibacterial activity against methicillin sensitive Staphylococcus aureus assessed as bacterial growth inhibition measured after 18 to 24 hrs by two fold serial dilution assay; conditions: time 18-24 hrs
# Klebsiella pneumoniae [6] = assay: Antibacterial activity against Klebsiella pneumoniae assessed as bacterial growth inhibition measured after 18 to 24 hrs by two fold serial dilution assay; conditions: time 18-24 hrs
# Pseudomonas aeruginosa [7] = assay: Antibacterial activity against Pseudomonas aeruginosa assessed as bacterial growth inhibition measured after 18 to 24 hrs by two fold serial dilution assay; conditions: time 18-24 hrs
# Escherichia coli [8] = assay: Antibacterial activity against Escherichia coli ATCC 8739 assessed as bacterial growth inhibition measured after 18 to 24 hrs by two fold microdilution assay; conditions: time 18-24 hrs
# Klebsiella pneumoniae [9] = assay: Antibacterial activity against Klebsiella pneumoniae ATCC 13883 assessed as bacterial growth inhibition measured after 18 to 24 hrs by two fold microdilution assay; conditions: time 18-24 hrs
# Staphylococcus aureus [10] = assay: Antibacterial activity against Staphylococcus aureus ATCC 29213 assessed as bacterial growth inhibition by broth microdilution assay
# Acinetobacter baumannii = assay: Antibacterial activity against Acinetobacter baumannii assessed as bacterial growth inhibition by agar dilution assay
# Pseudomonas aeruginosa [11] = assay: Antibacterial activity against Pseudomonas aeruginosa ATCC 27853 assessed as bacterial growth inhibition by agar dilution assay
# Staphylococcus aureus [12] = assay: Antibacterial activity against Staphylococcus aureus assessed as bacterial growth inhibition by agar dilution assay
# Staphylococcus aureus [13] = assay: Antibacterial activity against methicillin resistant Staphylococcus aureus assessed as bacterial growth inhibition by agar dilution assay
# Escherichia coli [14] = assay: Antibacterial activity against Escherichia coli ATCC 25922 assessed as bacterial growth inhibition by agar dilution assay
# Klebsiella pneumoniae [15] = assay: Antibacterial activity against Klebsiella pneumoniae assessed as bacterial growth inhibition by agar dilution assay
# Staphylococcus aureus [16] = assay: Antibacterial activity against Staphylococcus aureus ATCC 25923 assessed as bacterial growth inhibition by agar dilution assay
# Staphylococcus aureus [17] = assay: Antibacterial activity against Staphylococcus aureus ATCC 29213 assessed as bacterial growth inhibition by agar dilution assay
# Staphylococcus aureus [18] = assay: Antibacterial activity against clinical isolate aminoglycosides/tetracycline/methicillin resistant Staphylococcus aureus NRS 1 assessed as bacterial growth inhibition measured after 16 to 18 hrs by serial dilution method; conditions: time 16-18 hrs
# Staphylococcus aureus [19] = assay: Antibacterial activity against clinical isolate erythromycin/methicillin resistant Staphylococcus aureus NRS 70 assessed as bacterial growth inhibition measured after 16 to 18 hrs by serial dilution method; conditions: time 16-18 hrs
# Staphylococcus aureus [20] = assay: Antibacterial activity against clinical isolate oxacillin/tetracycline/methicillin resistant Staphylococcus aureus NRS 100 assessed as bacterial growth inhibition measured after 16 to 18 hrs by serial dilution method; conditions: time 16-18 hrs
# Staphylococcus aureus [21] = assay: Antibacterial activity against clinical isolate gentamycin/methicillin resistant Staphylococcus aureus NRS 108 assessed as bacterial growth inhibition measured after 16 to 18 hrs by serial dilution method; conditions: time 16-18 hrs
# Staphylococcus aureus [22] = assay: Antibacterial activity against clinical isolate linezolid/methicillin resistant Staphylococcus aureus NRS 271 assessed as bacterial growth inhibition measured after 16 to 18 hrs by serial dilution method; conditions: time 16-18 hrs
# Staphylococcus aureus [23] = assay: Antibacterial activity against fluoroquinolone/methicillin resistant Staphylococcus aureus clinical isolate 19-25 assessed as bacterial growth inhibition measured after 16 to 18 hrs by serial dilution method; conditions: time 16-18 hrs
# Staphylococcus aureus [24] = assay: Antibacterial activity against fluoroquinolone/methicillin resistant Staphylococcus aureus clinical isolate 19-26 assessed as bacterial growth inhibition measured after 16 to 18 hrs by serial dilution method; conditions: time 16-18 hrs
# Staphylococcus aureus [25] = assay: Antibacterial activity against fluoroquinolone/methicillin resistant Staphylococcus aureus clinical isolate 19-27 assessed as bacterial growth inhibition measured after 16 to 18 hrs by serial dilution method; conditions: time 16-18 hrs
# Staphylococcus aureus [26] = assay: Antibacterial activity against Staphylococcus aureus Newman assessed as bacterial growth inhibition measured after 16 to 18 hrs by serial dilution method; conditions: time 16-18 hrs
# Staphylococcus aureus [27] = assay: Antibacterial activity against vancomycin-intermediate methicillin resistant Staphylococcus aureus ATCC 700699 assessed as bacterial growth inhibition measured after 16 to 18 hrs by serial dilution method; conditions: time 16-18 hrs
# Staphylococcus aureus [28] = assay: Antibacterial activity against methicillin resistant Staphylococcus aureus ATCC 33591 assessed as bacterial growth inhibition measured after 16 to 18 hrs by serial dilution method; conditions: time 16-18 hrs
# Staphylococcus aureus [29] = assay: Antibacterial activity against methicillin resistant Staphylococcus aureus ATCC 43300 assessed as bacterial growth inhibition measured after 16 to 18 hrs by serial dilution method; conditions: time 16-18 hrs
# Staphylococcus aureus [30] = assay: Antibacterial activity against Staphylococcus aureus ATCC 25923 assessed as bacterial growth inhibition measured after 18 to 24 hrs by two fold microdilution assay; conditions: time 18-24 hrs
# Escherichia coli [31] = assay: Antibacterial activity against Escherichia coli ATCC 35218 assessed as bacterial growth inhibition measured after 18 to 24 hrs by two fold microdilution assay; conditions: ATCC35218, time 18-24 hrs
# Klebsiella pneumoniae [32] = assay: Antibacterial activity against Klebsiella pneumoniae assessed as bacterial growth inhibition measured after 18 to 24 hrs by two fold microdilution assay; conditions: time 18-24 hrs
# Escherichia coli [33] = assay: Antibacterial activity against Escherichia coli assessed as bacterial growth inhibition measured after 20 hrs by serial dilution method
# Klebsiella pneumoniae [34] = assay: Antibacterial activity against Klebsiella pneumoniae assessed as bacterial growth inhibition measured after 20 hrs by serial dilution method
# Pseudomonas aeruginosa [35] = assay: Antibacterial activity against Pseudomonas aeruginosa assessed as bacterial growth inhibition measured after 20 hrs by serial dilution method
# Staphylococcus aureus [36] = assay: Antibacterial activity against Staphylococcus aureus assessed as bacterial growth inhibition measured after 20 hrs by serial dilution method
# Staphylococcus aureus [37] = assay: Antibacterial activity against Staphylococcus aureus ATCC 6538p assessed as bacterial growth inhibition by agar dilution method
# [38] = system: Staphylococcus epidermidis; assay: Antibacterial activity against Staphylococcus epidermidis ATCC 12228 assessed as bacterial growth inhibition by agar dilution method
# Bacillus subtilis = assay: Antibacterial activity against Bacillus subtilis PTCC 1023 assessed as bacterial growth inhibition by agar dilution method
# Escherichia coli [39] = assay: Antibacterial activity against Escherichia coli ATCC 8739 assessed as bacterial growth inhibition by agar dilution method
# Klebsiella pneumoniae [40] = assay: Antibacterial activity against Klebsiella pneumoniae ATCC 10031 assessed as bacterial growth inhibition by agar dilution method
# Enterobacter cloacae = assay: Antibacterial activity against Enterobacter cloacae PTCC 1003 assessed as bacterial growth inhibition by agar dilution method
structure (smiles),measurement,setting,value
O=C(O)c1cn(C2CC2)c2cc(N3CCN(C(=O)CCSc4nnnn4Cc4ccccc4)CC3)c(F)cc2c1=O,Ratio,Escherichia coli [1],2
same,GI50,SiHa,70 nM
same,GI50,MDA-MB-231,80 nM
COc1c(N2C[C@H]3CCCN(C(=O)Cn4cc(CN5C(=O)C(=O)c6ccccc65)nn4)[C@H]3C2)c(F)cc2c(=O)c(C(=O)O)cn(C3CC3)c12,MIC,Pseudomonas aeruginosa [2],≤ 0.03 µg/mL
same,MIC,Escherichia coli [3],≤ 0.03 µg/mL
same,MIC,Escherichia coli [4],≤ 0.03 µg/mL
same,MIC,Staphylococcus aureus [5],≤ 0.03 µg/mL
same,MIC,Klebsiella pneumoniae [6],≤ 0.03 µg/mL
same,MIC,Pseudomonas aeruginosa [7],≤ 0.03 µg/mL
O=C1C(=O)N(Cc2cn(CC(=O)N3CCN(c4cc5c(cc4F)c(=O)c(C(=O)O)cn5C4CC4)CC3)nn2)c2ccc(F)cc21,MIC,Pseudomonas aeruginosa [2],≤ 0.03 µg/mL
same,MIC,Escherichia coli [3],≤ 0.03 µg/mL
same,MIC,Escherichia coli [4],≤ 0.03 µg/mL
same,MIC,Staphylococcus aureus [5],≤ 0.03 µg/mL
same,MIC,Klebsiella pneumoniae [6],≤ 0.03 µg/mL
same,MIC,Pseudomonas aeruginosa [7],≤ 0.03 µg/mL
O=C(O)c1cn(C2CC2)c2cc(N3CCN(Cn4nc(CN5CCN(c6ccccc6)CC5)n(-c5ccccc5)c4=S)CC3)c(F)cc2c1=O,MIC,Escherichia coli [8],0.125 µg/mL
same,MIC,Klebsiella pneumoniae [9],0.125 µg/mL
CCn1c(CN2CCN(c3ccccc3)CC2)nn(CN2CCN(c3cc4c(cc3F)c(=O)c(C(=O)O)cn4C3CC3)CC2)c1=S,MIC,Escherichia coli [8],0.125 µg/mL
same,MIC,Klebsiella pneumoniae [9],0.125 µg/mL
COc1ccc2nc(CN3CCN(c4cc5c(cc4F)c(=O)c(C(=O)O)cn5C4CC4)CC3)[nH]c(=O)c2c1,MIC,Staphylococcus aureus [10],0.031 µg/mL
CCOC(=O)c1cn(Cc2nc3ccccc3n2Cc2ccc(Cl)cc2Cl)c2cc(Cl)c(F)cc2c1=O,MIC,Acinetobacter baumannii,4 µg/mL
same,MIC,Pseudomonas aeruginosa [11],4 µg/mL
same,MIC,Staphylococcus aureus [12],4 µg/mL
same,MIC,Staphylococcus aureus [13],4 µg/mL
same,MIC,Escherichia coli [14],1 µg/mL
same,MIC,Klebsiella pneumoniae [15],1 µg/mL
same,MIC,Staphylococcus aureus [16],1 µg/mL
same,MIC,Staphylococcus aureus [17],1 µg/mL
Cc1ccc(Oc2ccnc(Nc3ccc4c(=O)c(C(=O)O)cn(C5CC5)c4c3)n2)cc1,MIC,Staphylococcus aureus [18],≤ 0.17 µg/mL
same,MIC,Staphylococcus aureus [19],≤ 0.17 µg/mL
same,MIC,Staphylococcus aureus [20],≤ 0.17 µg/mL
same,MIC,Staphylococcus aureus [21],≤ 0.17 µg/mL
same,MIC,Staphylococcus aureus [22],≤ 0.17 µg/mL
same,MIC,Staphylococcus aureus [23],≤ 0.17 µg/mL
same,MIC,Staphylococcus aureus [24],≤ 0.17 µg/mL
same,MIC,Staphylococcus aureus [25],≤ 0.17 µg/mL
same,MIC,Staphylococcus aureus [26],≤ 0.17 µg/mL
same,MIC,Staphylococcus aureus [27],≤ 0.17 µg/mL
same,MIC,Staphylococcus aureus [28],≤ 0.17 µg/mL
same,MIC,Staphylococcus aureus [29],≤ 0.17 µg/mL
O=C(O)c1cn(C2CC2)c2cc(N3CCN(Cn4nc(CN5CCN(c6ccc(F)cc6)CC5)n(-c5ccccc5)c4=O)CC3)c(F)cc2c1=O,MIC,Staphylococcus aureus [30],< 0.24 µg/mL
same,MIC,Escherichia coli [31],< 0.24 µg/mL
same,MIC,Klebsiella pneumoniae [32],< 0.24 µg/mL
Cc1cccc2cc(/C=C3\NC(=S)NC3=O)c(=O)[nH]c12,MIC,Escherichia coli [33],0.24 µg/mL
same,MIC,Klebsiella pneumoniae [34],0.24 µg/mL
same,MIC,Pseudomonas aeruginosa [35],0.24 µg/mL
same,MIC,Staphylococcus aureus [36],0.24 µg/mL
CCOC(=O)C(C(=O)OCC)C(=O)c1cn(C2CC2)c2cc(N3CCN(/N=N/c4nc(OC)cc(OC)n4)CC3)c(F)cc2c1=O,MIC,Staphylococcus aureus [37],0.015 µg/mL
same,MIC,[38],0.015 µg/mL
same,MIC,Bacillus subtilis,0.015 µg/mL
same,MIC,Escherichia coli [39],0.015 µg/mL
same,MIC,Klebsiella pneumoniae [40],0.015 µg/mL
same,MIC,Enterobacter cloacae,0.015 µg/mL
